From paper PMC3985586, “Cratoxylum formosum (Jack) Dyer ssp. pruniflorum (Kurz) Gogel. (Hóng yá mù) extract induces apoptosis in human hepatocellular carcinoma HepG2 cells through caspase-dependent pathways” (Chinese Medicine, 2014)
≈ marks a conversion by molar mass, not a printed value.

How the values were obtained:
HepG2 cells [1] = experiment: Mitochondrial membrane potential (DiOC6, flow cytometry); format: cell-based, human; details: HepG2, 35% (v/v) H2O2 positive control, 12 and 24 h, P < 0.001
Method: Cells (1 × 10^6 cells/mL) were seeded into a 24-well plate, incubated at 37°C for 24 h, and then treated with 0, 30, 60, or 120 μg/mL of CF extract for 12 or 24 h. Concentrated hydrogen peroxide (35%, v/v) was used as a positive control. Next, the cells were washed, harvested by trypsinization, transferred to a microcentrifuge tube, and stained with a lipophilic fluorogenic dye, DiOC6, at 40 nM for 30 min in the dark at 37°C. After the incubation, the cells were immediately analyzed by flow cytometry (BD FACSCanto II, San Jose, CA, USA) for incorporation of the fluorochrome.

Vero cells = experiment: Neutral red cytotoxicity assay, Vero; format: cell-based, African green monkey; details: Chlorocebus sabaeus, 24 h, read-out: IC50 ± SD Vero
Method: (§1) Cell viability was measured by an NR colorimetric assay. Human HepG2 cells and normal African green monkey kidney Vero cells were used as cell models to determine the percent cytotoxicity. Briefly, cells (4 × 10^6 cells/mL) were treated with CF extract at various concentrations (10, 25, 50, 100, 250, and 500 μg/mL) and the standard anticancer drug melphalan as a positive control, while the untreated groups were exposed to fresh medium at equal volumes to those used for the treated groups. After 24 h of exposure, the cells were incubated for 2 h with NR dye (50 μg/mL) dissolved in DMEM, and then washed with phosphate-buffered saline (PBS; pH 7.4). Finally, the cells were lysed with 0.33% HCl/isopropanol. A microplate reader (Tecan, France) was used to measure the absorbances of NR dye in the viable cells at 520 and 650 (reference) nm. The percentage of cell cytotoxicity of the CF extract was calculated as described by Machana et al.[18] and compared with that of melphalan. The selectivity index (SI) was calculated to determine the selective cancer cell line cytotoxicity. The SI of the test compound was compared with the IC50 for the Vero cells divided by the IC50 for the HepG2 cells.

HepG2 cells [2] = experiment: DAPI staining apoptosis induction assay; format: cell-based, human; details: HepG2, 24 h, CF 120 μg/mL, melphalan 80 μg/mL (2 × IC50)
Method: Cells (1 × 10^6 cells/well) were treated with CF extract and the melphalan for 24 h at 2 × IC50, and the morphological changes of the induced apoptotic cells were determined by DAPI staining. The concentrations of CF extract and melphalan used in the following apoptosis experiments were 120 and 80 μg/mL, respectively. The cells were fixed in pure methanol at 4°C for 10 min, and then stained with DAPI (1 μg/mL) at room temperature in the dark. The excess dye was removed and glycerin was added to the cells with PBS at a 1:1 ratio and mixed well. Next, the cells were fixed on a slide and the apoptotic bodies observed at 40× objective magnification under an inverted fluorescence microscope (Eclipse TS100; Nikon, UK). The percentage of apoptotic cells was calculated as described by Machana et al.[18]. The average% apoptotic cells were calculated from three independent wells with 10 eye views in each well.

HepG2 cells [3] = experiment: Neutral red cytotoxicity assay, HepG2; format: cell-based, human
Method: as §1

Structure (SMILES) | Alteration of MMP compared to untreated cells (HepG2 cells [1]) | IC50 (Vero cells) [µg/mL] | Percentage of apoptotic cells (HepG2 cells [2]) [%] | IC50 (HepG2 cells [3]; Homo sapiens, HepG2, 24 h, read-out: IC50 ± SD HepG2) [µg/mL] | Selectivity index (SI) (HepG2 cells [3]; IC50 for Vero cells divided by IC50 for HepG2 cells, SI > 3 indicates high selectivity)
OO [H2O2, hydrogen peroxide] | significantly different | – | – | – | –
N[C@@H](Cc1ccc(N(CCCl)CCCl)cc1)C(=O)O [Melphalan, melphalan] | – | 59.9 ± 3.2 (≈ 196 µM) | 41.6 ± 2.1 | 37.7 ± 9.8 (≈ 124 µM) | 1.6
